For test [1], the system named is antithrombin III (AT III). Kind of test: Comparison Experiment 13: oxidative inactivation of antithrombin III. As to conditions: 37° C., 15 min preincubation, pH 8.8. Format: biochemical. The procedure:
50 pmol of AT III in 50 μl of 50 mM Tris, 100 mM NaCl, 0.1% (w/v) Triton×100, pH 8.8 buffer, are preincubated with increasing quantities of chloramine T or hydrogen peroxide in 50 μl of distilled water at 37° C. for 15 min. Then 3 pmol of human alpha-thrombin, 2.5 IU of heparin and 2 KIU of aprotinin in 500 μl of 100 mM Tris, 150 mM NaCl, pH 8.2, are added, and the mixture is incubated at 37° C. for 5 min. Addition of 500 μl of 0.4 mM H-D-CHA-But-ArgpNA was followed by further incubation for 3 min (37° C.). The reaction was stopped by 100 μl of 8.5 M acetic acid, and the change in extinction at 405 nm was determined.

Test [2] deals with plasminogen activator inhibitors. As to conditions: Lawrence and Loskutoff, Biochemistry 25, 6351-6355, 1986; cited from earlier work.
For the next test, the system named is human alpha-thrombin. Kind of test: Comparison Experiment 13: oxidation resistance of thrombin. It counts as biochemical. As to conditions: 500 nmol of chloramine T or 500 times the dose of H202.
Test [3] deals with plasmin. Kind of test: Comparison Experiment 11: effect of chloramine T and/or tranexamic acid on plasmin activity in the functional PAI assay. It counts as biochemical. As to conditions: for delta A/4 min: 405 nm. The procedure:
(§1) Preincubation of 50 μl of sample with 200 μl of a variant of solution C (plasminogen activator dissolved in basic buffer U) at 37° C. for five minutes was followed by addition of 200 μl of a variant of plasminogen reagent (F), composed of 100 mM Tris-HCl pH 8.4, crosslinked polypeptides 1%, ^R Triton×100 0.1%, 100 mM NaCl without tran-examic acid, NaN3 0.01 % (basic buffer U) with 10 CTA-U/ml plasminogen and 200 μl of distilled water with 10 mM chloramine T, 3 mM tranexamic acid to the reaction mixture. The mixture was incubated at 37° C. for 5 min, and 500 μl of 0.6 mM chromogenic plasmin substrate HD-Nva-CHA-Lys-pNA in 480 mM NaCl (or, as a substitute, 200 mM CsCl) were added. The resultant linear change in extinction, delta A/min, at 405 nm was followed.

Another test has as its system urokinase. Kind of test: Comparison Experiment 3: stability of urokinase against chloramine T in the pure buffer system. It counts as biochemical. The procedure: (§2) 50 μl of various samples, namely either basic buffer A (1) or PAI-deficient plasma (2) and PAI-rich plasma (3) 20 were incubated with 200 μl of solution C (plasminogen activator reagent) at 23° C. for 10 min. After addition of 500 μl of solution A (basic buffer), 50 μl of chloramine T of various concentrations, 300 μl of solution E (plasmin substrate reagent) and 100 μl of solution F (plasminogen reagent), the mixtures were incubated at 37° C. for 15 min. Substrate conversion was stopped by addition of 100 μl of 8.5 M acetic acid, and the extinction at 405 nm was determined. The oxidizing agent chloramine T used in this experiment was employed in solutions of the following concentrations.

The test system of test [4] is Plasmin/antiplasmin complexes. Kind of test: Comparison Experiment 14b: stability of plasmin/antiplasmin complexes to chloramine T. Format: biochemical. As to conditions: in the reaction mixture, 37° C., 30 min. How it is done: 30 pmol of alpha2 -antiplasmin and basic buffer A (control mixture) are incubated with 50 pmol of plasmin in 175 μl of basic buffer A for 5 min (37° C.). Addition of 500 μl of chloramine T of various concentrations in basic buffer A is followed by incubation for 30 min (37° C.), and the detection reaction is started by addition of 200 μl of 2.5 mM chromogenic plasmin substrate H-D-Phe-Tyr-Arg-ANBA in basic buffer A. After 3 min (37° C.), the reaction is stopped by addition of 100 μl of 8.5 M acetic acid, and the change in extinction at 405 nm is determined. No additional plasmin activity is generated even by chloramine T concentrations above 5 mM in the reaction mixture, that is to say plasmin/antiplasmin complexes are oxidation-resistant.

For a further test, the system named is PAI/u-PA complex. Kind of test: Comparison Experiment 3: stability of the PAI/u-PA complex against chloramine T. Format: biochemical. The procedure:
as §2

The next test has as its system u-PA/PAI complexes. Kind of test: Comparison Experiments 5 and 7: stability of u-PA/PAI complexes in the functional PAI determination. Format: biochemical. As to conditions: in the reaction mixture; Comparison Experiment 5. The procedure:
as §1, with “followed. The values found for normal plasma were about 0.2/min.” for “followed.”
The chloramine T concentrations added in the determination method specified in Example 3 were varied from 0 to 9 mmol/1 of reaction mixture. The assayed samples were either a) deficient in functional PAI (=PAI-deficientplasma) or b) rich in functional PAI. An optimum of generated plasmin activity is found on addition of between 1 and 4 mmol/1 chloramine T. The two plasma plots are parallel throughout the range, i.e. u-PA/PAI complexes are stable up to at least 9 mM chloramine T in the reaction mixture (=650 1). […]

Test [5] concerns plasmin. Kind of test: Oxidative inactivation of alpha2-antiplasmin. It counts as biochemical. The source says:
Accurate determination of the said proteins requires that specific and non-specific plasmin inhibitors be quantitatively inactivated. […] This effect corresponds to expectations inasmuch as the plasminogen activator inhibitors belong to the family of serine protease inhibitors (serpins) whose archetype, namely alpha1 -protease inhibitor, contains an oxidizable methionine in the active center. Oxidation of this methionine results in a methionine sulfoxide, and the inhibitory functions are lost with the formation thereof. Lawrence and Loskutoff show, both for alpha1 -protease inhibitor and for plasminogen activator inhibitor, that the inactivation is reversible by treatment with dithiothreitol and methionine-sulfoxide-peptide reductase, i.e. under the conditions described therein the plasminogen activator inhibitor is demonstrably inactivated by oxidation. It was all the less to be expected that the complexes of plasminogen activator and plasminogen activator inhibitor produced in the reaction remain intact even under the oxidizing conditions according to the invention. […] Furthermore, it is very remarkable that the reaction of a non-inhibited plasminogen activator with its substrate, a natural or synthetic plasminogen, as well as the enzymatic reactions dependent thereon, take place undisturbed during the oxidation process.

In test [6] the test system is plasmin. To be noted: Shieh and Travis, J.Biol.Chem. 262, 6055-6059, 1987; cited from earlier work.

Take `Cc1ccc(S(=O)(=O)NCl)cc1` [chloramine T, Chloramine T]: in [1], the “quantity of chloramine T inactivating 50 pmol of AT III” value is 500 nmol. Also, the “concentration inactivating plasminogen activator inhibitors” value in [2] is given as “about 10 μM”. Moreover, the “activity of thrombin at the dose inactivating AT III” value with human alpha-thrombin is on record as “without the activity of thrombin being impaired”. For the same molecule, the “increase in plasmin activity with alpha2-antiplasmin-deficient plasma compared with normal plasma” value with plasmin [3] is reported as 20%. In addition, the “delta A/4 min” value is 271 mA with plasmin [3] (Normal plasma without alpha2-antiplasmin) and 225 mA in the test on plasmin [3] (Normal plasma). For the same molecule, the “chloramine T concentration attacking urokinase” value with urokinase stood at 1 mM. Further, in test [4], the “chloramine T concentration generating no additional plasmin activity” value is “above 5 mM”. Further, in the test on PAI/u-PA complex, the “chloramine T concentration at which the PAI/u-PA complex is stable (FIG. 3)” value is on record as “above 2 mmol/1”. Moreover, in the test with PAI/u-PA complex (PAI-deficient vs PAI-rich plasma, in reaction mixture), the “chloramine T concentration not resulting in cleavage of the PAI/u-PA complexes” value was “above 2 mM”. In addition, the “chloramine T concentration up to which u-PA/PAI complexes are stable” value in the test with u-PA/PAI complexes was “at least 9 mM”.

B1: alpha2 -antiplasmin: specific plasmin inhibitor (protein, UniProt P08697 40-491, looked up)
Alpha-2-antiplasmin: NQEQVSPLTLLKLGNQEPGGQTALKSPPGVCSRDPTPEQTHRLARAMMAFTADLFSLVAQTSTCPNLILSPLSVALALSHLALGAQNHTLQRLQQVLHAGSGPCLPHLLSRLCQDLGPGAFRLAARMYLQKGFPIKEDFLEQSEQLFGAKPVSLTGKQEDDLANINQWVKEATEGKIQEFLSGLPEDTVLLLLNAIHFQGFWRNKFDPSLTQRDSFHLDEQFTVPVEMMQARTYPLRWFLLEQPEIQVAHFPFKNNMSFVVLVPTHFEWNVSQVLANLSWDTLHPPLVWERPTKVRLPKLYLKHQMDLVATLSQLGLQELFQAPDLRGISEQSLVVSGVQHQSTLELSEVGVEAAAATSIAMSRMSLSSFSVNRPFLFFIFEDTTGLPLFVGSVRNPNPSAPRELKEQQDSPGNKDFLQSLKGFPRGDKLFGPDLKLVPPMEEDYPQFGSPK
As for B1, in the test with plasmin [5], the “inactivation of alpha2-antiplasmin under the oxidizing conditions of the invention” value was “nearly completely inactivated”. Besides, the “resistance of alpha2-antiplasmin to oxidation” value in the test with plasmin [6] is reported as “resistant to oxidation”.

These data come from patent publication US5057414A, “Method for the determination of the activity of serine proteases or serine protease inhibitors” (Behringwerke Aktiengesellschaft, priority 1987, dated 1991).
